We go through one substance from US7078565B2, “Benzamide derivatives as antagonists of orexin receptors” (SmithKline Beecham plc, priority 2001, dated 2006).

One test has as its system rat. The experiment in a line: Rat sleep/EEG studies. Format: in vivo. The settings on record: central administration at the onset of the normal sleep period; at the expense of paradoxical sleep and slow wave sleep 2. The text has this: Therefore antagonists of its receptors may be useful in the treatment of sleep disorders including insomnia.
The test system of another test is freely-feeding rats. The settings on record: central administration, 4 hour time period; cited from earlier work.

With “orexin-A: peptide ligand for the orexin-1 receptor, an agonist of the orexin receptors; sequence given in b81 (QPLPDCCRQKTCSCRLYELLHGAGNHAAGILTL; not fully specified; Orexin-A; UniProt O43612 34-66, looked up)”, in the test with rat, the arousal result is on record as “dose-related increase in arousal”. Further, the “increase in food intake over control rats receiving vehicle” value in the test with freely-feeding rats is given as “approximately four-fold”.
